Test results as given in paper PMC7815786, “Antimicrobial effects of syndiotactic polypeptides” (Scientific Reports, 2021).
Converted amounts (≈) assume the structure as drawn. Where a SMILES comes first, the peptide text is derived from it. [ ]: non-standard residue; d: D form.

Columns and labels:
[1] = system: Gentamicin resistant MRSA (ATCC 33592); type: cell-based, Staphylococcus aureus
Procedure: (§1) The antibacterial activity was performed using micro-dilution method as per Clinical and Laboratory Standards Institute (CLSI). Gentamicin resistant MRSA (ATCC 33592), Mycobacterium smegmatis (ATCC607) were procured from ATCC, Escherichia coli MG1655 has been sourced fromChaudhary laboratory, BSBE, IIT Guwahati. The clinical isolates was provided by Dr. Chimanjita Phukan (Guwahati Medical College Hospital, Bhangagarh, Guwahati, Assam). The media broth was procured from Himedia Laboratories. Overnight culture of Gentamicin resistant MRSA (ATCC 33592), Escherichia coli MG1655, clinical isolates [(S. aureus (drug resistant) and E. coli (multidrug resistant) supplementary table 2] were diluted to 10^6 CFU/mL in Nutrient Broth (NB). 100 µL of broth containing 50 µL of bacterial suspension and test peptides at various concentrations were incubated for 12 to 16 h at 37 °C[33]. Similarly, Mycobacterium smegmatis (ATCC607) was diluted to 10^6 CFU/mL in M7H9 media. 50 µL of bacterial suspension was treated with 50 µL peptides at various concentrations. The peptide bacterial suspension was incubated for 72 h at 37 °C. The antimicrobial potencies of the peptides were evaluated at 600 nm by a comparative assessment with untreated bacterial suspension (negative control). The Minimal Inhibitory Concentration (MIC) was reported at the lowest concentration, where no growth was observed, as per standard protocols. The serum sensitivity experiment was similar to antibacterial activity. In this experiment, 50% serum containing media was used, instead of media alone. The experiment with human serum was performed as per IHEC (Institute Human Ethics Committee) guidelines, at IIT Guwahati hospital, from healthy adult donors. All the protocols were approved by the IHEC, and performed, with the informed consent and written approval from the subjects.

[2] = system: Mycobacterium smegmatis (ATCC607); type: cell-based; conditions: ATCC607, 72 h
Procedure: as §1

Escherichia coli MG1655 = type: cell-based
Procedure: as §1

[3] = system: clinical isolate of drug resistant Staphylococcus aureus (sample 28401); type: cell-based; conditions: clinical isolate of drug resistant (sample 28401)
Procedure: as §1
(§2) Primary screening of the antibacterial activity of the peptides was performed against clinical isolates obtained from a tertiary referral hospital (Details in supplementary information, section 3). Resistant Staphylococcus aureus (Gram-positive) and E.coli (Gram negative) are the two clinical bacterial strains assayed in this study. The results of the antimicrobial assay are summarized in Fig. 4 and supplementary Table 2.
(§3) Supplementary Table 2. The in-vitro antimicrobial activity of designed peptides against clinical isolates of multi-drug resistant Staphylococcus aureus and Escherichia coli. The concentration is expressed in µM.

[4] = system: clinical isolate of multi-drug resistant Escherichia coli (sample 28162); type: cell-based; conditions: clinical isolate of multi-drug resistant (sample 28162)
Procedure: as §1, §2, §3

[5] = system: bacterial species tested (not specified); type: cell-based; conditions: wet lab experiments, bacterial species not given
Procedure: as §1
Several modes of action of AMP’s have been proposed, and the contentious issue primarily is whether the peptide is targeting the membrane, followed by its disruption or it penetrates the membrane invading cytoplasm, affecting cellular metabolism. […]

Row | SMILES | MIC Gentamicin resistant MRSA, Medium [1] [µM] | MIC M.smegmatis, Medium [2] [µM] | MIC E. coli, Medium (Escherichia coli MG1655) [µM] | MIC S. aureus clinical isolate [3] [µM] | MIC E.coli clinical isolate [4] [µM] | MIC values (summary in discussion) [5] [µM]
1 | CC(C)[C@H](NC(=O)[C@@H](Cc1c[nH]c2ccccc12)NC(=O)[C@H](Cc1c[nH]c2ccccc12)NC(=O)[C@@H](CCCCN)NC(=O)[C@H](CCCNC(=N)N)NC(=O)[C@@H](CCCCN)NC(=O)[C@@H](NC(=O)[C@H](NC(=O)[C@H](Cc1c[nH]c2ccccc12)NC(=O)[C@@H](Cc1c[nH]c2ccccc12)NC(=O)[C@H](CCCNC(=N)N)NC(=O)[C@@H](CCCCN)NC(=O)[C@@H](N)CCCNC(=N)N)C(C)C)C(C)C)C(N)=O [AS01] (H-R[dK]R[dW]W[dV]V[dK]R[dK]W[dW]V-NH2) | 6.25 (≈ 12 µg/mL) | 6.25 (≈ 12 µg/mL) | 3.13 (≈ 5.99 µg/mL) | – | – | –
2 | CC(C)C[C@H](NC(=O)[C@@H](Cc1c[nH]c2ccccc12)NC(=O)[C@H](CC(C)C)NC(=O)[C@@H](Cc1c[nH]c2ccccc12)NC(=O)[C@H](CCCNC(=N)N)NC(=O)[C@@H](CCCCN)NC(=O)[C@@H](N)CCCNC(=N)N)C(=O)N[C@H](CCCCN)C(=O)N[C@@H](CCCNC(=N)N)C(=O)N[C@H](CCCCN)C(=O)N[C@@H](Cc1c[nH]c2ccccc12)C(=O)N[C@H](CC(C)C)C(=O)N[C@@H](Cc1c[nH]c2ccccc12)C(N)=O [AS02] (H-R[dK]R[dW]L[dW]L[dK]R[dK]W[dL]W-NH2) | 3.13 (≈ 6.12 µg/mL) | 3.13 (≈ 6.12 µg/mL) | 6.25 (≈ 12.2 µg/mL) | 50 (≈ 97.7 µg/mL) | 50 (≈ 97.7 µg/mL) | –
3 | CC(C)[C@H](NC(=O)[C@H](NC(=O)[C@H](Cc1c[nH]c2ccccc12)NC(=O)[C@@H](Cc1c[nH]c2ccccc12)NC(=O)[C@H](CCCCN)NC(=O)[C@@H](CCCCN)NC(=O)[C@H](CCCCN)NC(=O)[C@H](NC(=O)[C@H](Cc1c[nH]c2ccccc12)NC(=O)[C@@H](Cc1c[nH]c2ccccc12)NC(=O)[C@H](CCCCN)NC(=O)[C@@H](CCCCN)NC(=O)[C@@H](N)CCCCN)C(C)C)C(C)C)C(N)=O [AS03] (H-K[dK]K[dW]W[dV]K[dK]K[dW]W[dV]V-NH2) | 3.13 (≈ 5.72 µg/mL) | 6.25 (≈ 11.4 µg/mL) | 6.25 (≈ 11.4 µg/mL) | 25 (≈ 45.7 µg/mL) | 25 (≈ 45.7 µg/mL) | 1 to 10
4 | CC(C)[C@@H](NC(=O)[C@H](Cc1c[nH]c2ccccc12)NC(=O)[C@H](NC(=O)[C@H](CCCCN)NC(=O)[C@@H](CCCCN)NC(=O)[C@H](CCCCN)NC(=O)[C@@H](Cc1c[nH]c2ccccc12)NC(=O)[C@@H](N)Cc1c[nH]c2ccccc12)C(C)C)C(=O)N[C@@H](CCCCN)C(=O)N[C@H](CCCCN)C(=O)N[C@@H](CCCCN)C(=O)N[C@H](Cc1c[nH]c2ccccc12)C(=O)N[C@@H](Cc1c[nH]c2ccccc12)C(N)=O [AS04] (H-W[dW]K[dK]K[dV]W[dV]K[dK]K[dW]W-NH2) | 1.6 (≈ 3.06 µg/mL) | 6.25 (≈ 12 µg/mL) | 3.13 (≈ 6 µg/mL) | 50 (≈ 95.8 µg/mL) | 25 (≈ 47.9 µg/mL) | –
5 | CC(C)[C@H](NC(=O)[C@H](NC(=O)[C@H](CCCCN)NC(=O)[C@@H](CCCCN)NC(=O)[C@H](CCCCN)NC(=O)[C@H](NC(=O)[C@@H](NC(=O)[C@H](NC(=O)[C@H](CCCCN)NC(=O)[C@@H](CCCCN)NC(=O)[C@@H](N)CCCCN)C(C)C)C(C)C)C(C)C)C(C)C)C(=O)N[C@H](Cc1c[nH]c2ccccc12)C(=O)N[C@@H](CCCCN)C(N)=O [AS06] (H-K[dK]K[dV]V[dV]K[dK]K[dV]V[dW]K-NH2) | 50 (≈ 79.8 µg/mL) | 25 (≈ 39.9 µg/mL) | 25 (≈ 39.9 µg/mL) | – | – | ~50 (≈ 79.8 µg/mL)
6 | CC(C)C[C@@H](NC(=O)[C@H](Cc1c[nH]c2ccccc12)NC(=O)[C@@H](CC(C)C)NC(=O)[C@@H](N)Cc1c[nH]c2ccccc12)C(=O)N[C@@H](Cc1c[nH]c2ccccc12)C(=O)N[C@H](CC(C)C)C(=O)N[C@@H](Cc1c[nH]c2ccccc12)C(=O)N[C@@H](C(=O)N[C@@H](CCCCN)C(=O)N[C@H](CCCCN)C(=O)N[C@@H](C)C(=O)N[C@H](CCCCN)C(=O)N[C@@H](C)C(=O)N[C@H](CCCCN)C(=O)N[C@@H](CCCCN)C(N)=O)C(C)C [AS08] (H-W[dL]W[dL]W[dL]W[dV]K[dK]A[dK]A[dK]K-NH2) | 6.25 (≈ 12.4 µg/mL) | 6.25 (≈ 12.4 µg/mL) | 6.25 (≈ 12.4 µg/mL) | – | – | 1 to 10
